# Source: PMC5971061, “Differential Effects of Linkers on the Activity of Amphiphilic Tobramycin Antifungals” (Molecules : A Journal of Synthetic Chemistry and Natural …, 2018)
# Like-named read-outs stand apart in the source and are kept apart here.
# Legend:
# [1] = test system: C. albicans ATCC 10231 (strain A); assay: MIC, broth microdilution (CLSI M27-A3), yeast strain A; assay type: cell-based, Candida albicans; settings: Candida albicans, ATCC10231; MIC-0, strain A, 35 °C 48 h
# Experimental: (§1) The final concentrations of compounds 3, 4, 7a, 7b, 9, and 16, as well as that of TOB tested in this study ranged from 0.24–62.5 μg/mL. CAS was used as a positive control and the final concentrations tested for CAS ranged from 0.03–31.3 μg/mL. Briefly, overnight yeast cultures were grown in yeast peptone dextrose (YPD) broth and the cell density was adjusted to an OD600 of 0.12 (~1 × 10^6 CFU/mL) by using a spectrophotometer. Yeast cell suspensions were further diluted to achieve 1–5 × 10^3 CFU/mL in RPMI 1640 medium, and 100 μL of these yeast cells was added to 96-well microtiter plates containing RPMI 1640 medium and titrated compounds. Each test was performed in triplicate. The plates were incubated at 35 °C for 48 h.
# [2] = test system: C. albicans ATCC 90819(R) (strain D); assay: MIC, broth microdilution (CLSI M27-A3), yeast strain D; assay type: cell-based; settings: Candida albicans, ATCC90819; MIC-0, strain D, 35 °C 48 h
# Experimental: as §1
# [3] = test system: Candida glabrata clinical isolate CG2; assay: MIC, broth microdilution (CLSI M27-A3), CG2; assay type: cell-based; settings: Nakaseomyces glabratus; MIC-0, CG2, 35 °C 48 h
# Experimental: as §1
# [4] = test system: Candida glabrata clinical isolate CG3; assay: MIC, broth microdilution (CLSI M27-A3), CG3; assay type: cell-based; settings: Nakaseomyces glabratus; MIC-0, CG3, 35 °C 48 h
# Experimental: as §1
# [5] = test system: C. albicans ATCC MYA-2876(S) (strain C); assay: MIC, broth microdilution (CLSI M27-A3), yeast strain C; assay type: cell-based; settings: Candida albicans; MIC-0, strain C, 35 °C 48 h
# Experimental: as §1
# [6] = test system: Candida glabrata ATCC 2001 (strain H); assay: MIC, broth microdilution (CLSI M27-A3), yeast strain H; assay type: cell-based; settings: Nakaseomyces glabratus, ATCC2001; MIC-0, strain H, 35 °C 48 h
# Experimental: as §1
# [7] = test system: seven C. albicans strains (A-G); assay: MIC across the panel of seven C. albicans strains; assay type: cell-based; settings: Candida albicans; across all seven C. albicans strains tested
# Experimental: as §1
# [8] = Hemolytic activity assay; assay type: cell-based, murine; settings: mouse, murine red blood cells (mRBCs); for hemolysis at 1 h, 0.48 μg/mL / hemolysis at 1 h, 0.975 μg/mL / hemolysis at 1 h, 1.95 μg/mL / hemolysis at 1 h, 3.9 μg/mL / hemolysis at 1 h, 7.8 μg/mL / hemolysis at 1 h, 15.6 μg/mL / hemolysis at 1 h, 31.3 μg/mL / hemolysis at 1 h, 62.5 μg/mL: mRBCs, 37 °C 1 h, ± SDEV; for hemolysis at 1 h: at their MIC values against the Aspergillus strains
# Experimental: The hemolytic activity of compounds 3, 4, 7a, 7b, and 9 as well as the parent compound TOB was determined by using previously described methods with minor modifications. Murine whole blood (1 mL) was suspended in 4 mL of PBS and centrifuged at 1000 rpm for 10 min at room temperature to obtain murine red blood cells (mRBCs). The mRBCs were washed four times in PBS and resuspended in the same buffer to a final concentration of 10^7 erythrocytes/mL. Two-fold serial dilutions of compounds 3, 4, 7a, 7b, and 9 were prepared using 100 μL of PBS buffer in Eppendorf tubes followed by the addition of 100 μL of mRBC suspension that made the final concentration of compounds and mRBCs to be 0.48–62.5 μg/mL and 5 × 10^6 erythrocytes/mL, respectively. The tubes were incubated at 37 °C for 1 h. The tubes with PBS buffer (200 μL) and Triton X-100® (1% v/v, 2 μL) served as the negative (blank) and positive controls, respectively. The percentage of hemolysis was calculated using the following equation: % hemolysis = [(absorbance of sample) − (absorbance of blank)] × 100/(absorbance of positive control).
# [9] = test system: Cryptococcus neoformans clinical isolate CN3; assay: MIC, broth microdilution (CLSI M27-A3), CN3; assay type: cell-based; settings: MIC-0, CN3, 35 °C 48 h
# Experimental: as §1
# [10] = test system: C. albicans ATCC MYA-1003(R) (strain G); assay: MIC, broth microdilution (CLSI M27-A3), yeast strain G; assay type: cell-based; settings: Candida albicans; MIC-0, strain G, 35 °C 48 h
# Experimental: as §1
# [11] = test system: nine non-albicans Candida strains (H-J, CG1-3, CP1-3); assay: MIC across the panel of nine non-albicans Candida strains; assay type: cell-based, Candida glabrata, Candida krusei, Candida parapsilosis
# Experimental: as §1
# [12] = test system: Aspergillus nidulans ATCC 38163 (strain L); assay: MIC, filamentous fungi (CLSI M38-A2), strain L; assay type: cell-based; settings: MIC-0, strain L, 35 °C 72 h
# Experimental: The spores were harvested from sporulating cultures growing on potato dextrose agar (PDA) by filtration through sterile glass wool and enumerated by using a hemocytometer (Hausser Scientific, Horsham, PA, USA) to obtain the desired inoculum size. Two-fold serial dilutions of compounds 3, 4, 7a, 7b, 9, and 16, as well as CAS and TOB were made in sterile 96-well microtiter plates to obtain the final concentration range of 0.24–62.5 μg/mL for TOB and TOB derivatives as well as 0.03–31.3 μg/mL for CAS in the RPMI 1640 medium. The spore suspensions were added to the wells to afford a final concentration of 5 × 10^5 spores/mL. The plates were incubated at 35 °C for 72 h. […] Each test was performed in triplicate.
# [13] = test system: Candida parapsilosis clinical isolate CP2; assay: MIC, broth microdilution (CLSI M27-A3), CP2; assay type: cell-based; settings: Lodderomyces parapsilosis; MIC-0, CP2, 35 °C 48 h
# Experimental: as §1
# [14] = test system: Cryptococcus neoformans clinical isolate CN1; assay: MIC, broth microdilution (CLSI M27-A3), CN1; assay type: cell-based; settings: MIC-0, CN1, 35 °C 48 h
# Experimental: as §1
# [15] = test system: C. albicans ATCC MYA-1237(R) (strain F); assay: MIC, broth microdilution (CLSI M27-A3), yeast strain F; assay type: cell-based; settings: Candida albicans; MIC-0, strain F, 35 °C 48 h
# Experimental: as §1
# [16] = test system: Candida parapsilosis ATCC 22019 (strain J); assay: MIC, broth microdilution (CLSI M27-A3), yeast strain J; assay type: cell-based; settings: Lodderomyces parapsilosis, ATCC22019; MIC-0, strain J, 35 °C 48 h
# Experimental: as §1
# [17] = test system: Cryptococcus neoformans clinical isolate CN2; assay: MIC, broth microdilution (CLSI M27-A3), CN2; assay type: cell-based; settings: MIC-0, CN2, 35 °C 48 h
# Experimental: as §1
# [18] = test system: Candida krusei ATCC 6258 (strain I); assay: MIC, broth microdilution (CLSI M27-A3), yeast strain I; assay type: cell-based; settings: Pichia kudriavzevii, ATCC6258; MIC-0, strain I, 35 °C 48 h
# Experimental: as §1
# [19] = test system: C. albicans ATCC 64124 (strain B); assay: MIC, broth microdilution (CLSI M27-A3), yeast strain B; assay type: cell-based; settings: Candida albicans, ATCC64124; MIC-0, strain B, 35 °C 48 h
# Experimental: as §1
# [20] = Aspergillus nidulans, ATCC38163, 72 h, read-out: MIC
Compound,MIC [1] [µg/mL],MIC [2] [µg/mL],MIC [3] [µg/mL],MIC [4] [µg/mL],MIC [5] [µg/mL],MIC [6] [µg/mL],MIC [7] [µg/mL],"hemolysis at 1 h, 0.48 μg/mL [8] [%]","hemolysis at 1 h, 0.975 μg/mL [8] [%]","hemolysis at 1 h, 1.95 μg/mL [8] [%]","hemolysis at 1 h, 3.9 μg/mL [8] [%]","hemolysis at 1 h, 7.8 μg/mL [8] [%]","hemolysis at 1 h, 15.6 μg/mL [8] [%]","hemolysis at 1 h, 31.3 μg/mL [8] [%]","hemolysis at 1 h, 62.5 μg/mL [8] [%]",MIC [9] [µg/mL],MIC [10] [µg/mL],MIC [11] [µg/mL],"MIC [12, 20] [µg/mL]",MIC [13] [µg/mL],further results
"NC[C@H]1O[C@H](O[C@H]2[C@H](O)[C@@H](O[C@H]3O[C@H](CO)[C@@H](O)[C@H](N)[C@H]3O)[C@H](N)C[C@@H]2N)[C@H](N)C[C@@H]1O [TOB, tobramycin]",> 62.5,> 62.5,> 62.5,> 62.5,> 62.5,> 62.5,> 62.5,4.7 ± 3.9,9.3 ± 3.5,15.9 ± 1.9,15.9 ± 8.1,11.2 ± 4.6,15.3 ± 5,15.3 ± 2.7,21.1 ± 9.3,> 62.5,> 62.5,> 62.5,> 62.5,> 62.5,MIC [14]: > 62.5 µg/mL; MIC [15]: > 62.5 µg/mL; MIC [16]: > 62.5 µg/mL; MIC [17]: > 62.5 µg/mL; MIC [18]: > 62.5 µg/mL; MIC [19]: > 62.5 µg/mL
"CCCCCCCCCCCCc1cn(C[C@H]2O[C@H](O[C@@H]3[C@@H](O)[C@H](O[C@H]4O[C@H](CN)[C@@H](O)C[C@H]4N)[C@@H](N)C[C@H]3N)[C@H](O)[C@@H](N)[C@@H]2O)nn1 [Compound 7b, O-3-Amino-3,6-dideoxy-6-(4-dodecyl-1H-1,2,3-triazol-1-yl)-α-D-glucopyranosyl-(1→6)-O-[2,6-diamino-2,3,6-trideoxy-α-D-ribo-hexopyranosyl-(1→4)]-2-deoxy-D-streptamine]",3.9,15.6,3.9,3.9,15.6,7.8,3.9 to 15.6,0,0,14.8 ± 3.5,13.4 ± 6.2,24.6 ± 8.1,40.8 ± 5.4,55.5 ± 5.4,74.1 ± 0.8,0.975,7.8,1.95 to 7.8,1.95 to 3.9,1.95,hemolysis at 1 h [8]: 12 to 74%; MIC [12]: 1.95 µg/mL; MIC [14]: 0.48 µg/mL; MIC [15]: 7.8 µg/mL; MIC [16]: 1.95 µg/mL; MIC [17]: 0.48 µg/mL; MIC [18]: 3.9 µg/mL; MIC [19]: 3.9 µg/mL
"CCCCCCCCCCCCS(=O)(=O)C[C@H]1O[C@H](O[C@@H]2[C@@H](O)[C@H](O[C@H]3O[C@H](CN)[C@@H](O)C[C@H]3N)[C@@H](N)C[C@H]2N)[C@H](O)[C@@H](N)[C@@H]1O [Compound 4, O-3-Amino-3,6-dideoxy-6-(dodecylsulfonyl)-α-D-glucopyranosyl-(1→6)-O-[2,6-diamino-2,3,6-trideoxy-α-D-ribo-hexopyranosyl-(1→4)]-2-deoxy-D-streptamine]",15.6,15.6,3.9,3.9,15.6,15.6,7.8 to 31.3,0,0,6.6 ± 3.5,6 ± 1.9,10.7 ± 3.1,15.3 ± 5,24.9 ± 2.3,31.2 ± 6.6,0.975,15.6,3.9 to 15.6,1.95 to 3.9,3.9,hemolysis at 1 h [8]: 4 to 32%; MIC [12]: 3.9 µg/mL; MIC [14]: 1.95 µg/mL; MIC [15]: 15.6 µg/mL; MIC [16]: 7.8 µg/mL; MIC [17]: 0.48 µg/mL; MIC [18]: 7.8 µg/mL; MIC [19]: 31.3 µg/mL
